Patent publication US20230108906A1, “SUBSTITUTED BICYCLIC AND TRICYCLIC UREAS AND AMIDES, ANALOGUES THEREOF, AND METHODS USING SAME” (Arbutus Biopharma Corporation, priority 2019, published 2023)
pEC50: −log10 of the molar value.

What follows are compounds tested on HBV rcDNA in HepDE19 cells (assay: HepDE19 assay with bDNA quantitation of HBV rcDNA). Settings: Hepatitis B virus, HepDE19, 168 h, inhibition of rcDNA formation in HepDE19 cells (HepG2 derived), Tet-free medium, 7 day incubation, Quantigene 2.0 bDNA readout, top concentration 25 μM; read-out: DE-19bDNA EC50.
Assay type: cell-based, hepatitis B virus (HBV)
How it was run: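 Cytotoxicity run on replicate plates (5,000 cells/well, 4 days, ATP luminescence, CC50), while antiviral plates (50,000 cells/well) received compound for 7 days after tetracycline withdrawal to induce HBV replication. Top dose 25 μM, 8 points, 0.5% DMSO; rcDNA by branched-DNA assay, % inhibition fitted (4-parameter) for EC50 and EC90.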

| SMILES | pEC50 |
| --- | --- |
| CCN(C(=O)Nc1ccc(F)c(Cl)c1)C1COCc2[nH]c(=O)c3cc(F)c(F)cc3c21 (racemic) [Compound 45, 3-(3-Chloro-4-fluorophenyl)-1-(8,9-difluoro-6-oxo-1,4,5,6-tetrahydro-2H-pyrano[3,4-c]isoquinolin-1-yl)-1-ethylurea] | 8.00 |
| CC(C)CN(C(=O)Nc1ccc(F)c(Cl)c1)C1CCCc2[nH]c(=O)c3ccccc3c21 (stereo not drawn) [Compound 8, 3-(3-Chloro-4-fluorophenyl)-1-isobutyl-1-(6-oxo-1,2,3,4,5,6-hexahydrophenanthridin-1-yl)urea] | 6.33 |
| CCN(C(=O)Nc1ccc(F)c(C#N)c1)C1COCc2[nH]c(=O)c3cc(Cl)ccc3c21 (stereo not drawn) [Compound 66, 1-(8-Chloro-6-oxo-1,4,5,6-tetrahydro-2H-pyrano[3,4-c]isoquinolin-1-yl)-3-(3-cyano-4-fluorophenyl)-1-ethylurea] | 7.30 |
| CN(C(=O)Nc1ccc(F)c(Cl)c1)C1COCc2[nH]c(=O)c3ccsc3c21 (stereo not drawn) [Compound 96, 3-(3-chloro-4-fluorophenyl)-1-methyl-1-(4-oxo-4,6,8,9-tetrahydro-5H-pyrano[3,4-b]thieno[2,3-d]pyridin-9-yl)urea] | 7.10 |
| CN(C(=O)Nc1ccc(F)c(C#N)c1)C1CS(=O)(=O)Cc2[nH]c(=O)c3cc(F)c(F)cc3c21 (single isomer, unassigned) [Compound 205, 3-(3-Cyano-4-fluorophenyl)-1-(8,9-difluoro-3,3-dioxido-6-oxo-1,4,5,6-tetrahydro-2H-thiopyrano[3,4-c]isoquinolin-1-yl)-1-methylurea] | 5.14 |
| CN1Cc2[nH]c(=O)c3cc(F)c(F)cc3c2C(N(C)C(=O)Nc2ccc(F)c(C#N)c2)C1 (stereo not drawn) [Compound 173, 3-(3-Cyano-4-fluorophenyl)-1-(8,9-difluoro-3-methyl-6-oxo-1,2,3,4,5,6-hexahydrobenzo[c][1,7]naphthyridin-1-yl)-1-methylurea] | 4.89 |
| CN(C(=O)Nc1ccc(F)c(C(F)F)c1)[C@@H]1COCc2c1c1cc(F)c(F)cc1c(=O)n2CCO [Compound 251, (S)-1-(8,9-Difluoro-5-(2-hydroxyethyl)-6-oxo-1,4,5,6-tetrahydro-2H-pyrano[3,4-c]isoquinolin-1-yl)-3-(3-(difluoromethyl)-4-fluorophenyl)-1-methylurea] | 7.52 |
| Cc1cc(NC(=O)N(C)[C@@H]2COCc3[nH]c(=O)c4cc(F)c(F)cc4c32)ccc1F (single isomer, unassigned) [Compound 69] | 8.00 |
| CN(C(=O)Nc1ccc(F)c(Cl)c1)C1COCc2nc(NCCN)c3cc(F)c(F)cc3c21 (stereo not drawn) [Compound 240] | 6.23 |
| CN(C(=O)Nc1ccc(Cl)c(Cl)c1)[C@@H]1COCc2[nH]c(=O)c3cc(F)c(F)cc3c21 [Compound 143, (S)-3-(3,4-Dichlorophenyl)-1-(8,9-difluoro-6-oxo-1,4,5,6-tetrahydro-2H-pyrano[3,4-c]isoquinolin-1-yl)-1-methylurea] | 7.70 |
| CC1Cc2[nH]c(=O)c3ccccc3c2C(N(C)C(=O)Nc2ccc(F)c(Cl)c2)C1 (racemic) [Compound 26, 3-(3-Chloro-4-fluorophenyl)-1-methyl-1-(3-methyl-6-oxo-1,2,3,4,5,6-hexahydrophenanthridin-1-yl)urea] | 5.54 |
| O=C(Nc1ccc(F)c(Cl)c1)N[C@@H]1COCc2[nH]c(=O)c3cc(F)c(F)cc3c21 (single isomer, unassigned) [Compound 68] | 7.52 |
| CN(C(=O)Nc1ccc(F)c(C#N)c1)[C@@H]1COCc2[nH]c(=O)c3cc(F)c(F)cc3c21 (single isomer, unassigned) [Compound 70] | 8.00 |
| CN(C(=O)Nc1ccc(F)c(Cl)c1)C1CCc2[nH]c(=O)c3ccccc3c21 (stereo not drawn) [Compound 12, 3-(3-Chloro-4-fluorophenyl)-1-methyl-1-(5-oxo-2,3,4,5-tetrahydro-1H-cyclopenta[c]isoquinolin-1-yl)urea] | 7.05 |
| CCN(C(=O)Nc1ccc(F)c(C#N)c1)C1COCc2[nH]c(=O)c3ccc(F)cc3c21 (stereo not drawn) [Compound 78, 3-(3-Cyano-4-fluorophenyl)-1-ethyl-1-(9-fluoro-6-oxo-1,4,5,6-tetrahydro-2H-pyrano[3,4-c]isoquinolin-1-yl)urea] | 7.40 |

Same assay, conditions: Hepatitis B virus, HepDE19, 168 h, read-out: DE-19bDNA EC50 (uM), inhibition of rcDNA formation in HepDE19 cells (HepG2 derived), Tet-free medium, 7 day incubation, Quantigene 2.0 bDNA readout, top concentration 25 μM

| SMILES | EC50 |
| --- | --- |
| [2H]C([2H])([2H])N(C(=O)Nc1ccc(F)c(Cl)c1)[C@]1([2H])COCc2[nH]c(=O)c3cc(F)c(F)cc3c21 (single isomer, unassigned) [Compound 146] | 0.01 µM |

Same assay, conditions: inhibition of rcDNA formation in HepDE19 cells (HepG2 derived), Tet-free medium, 7 day incubation, Quantigene 2.0 bDNA readout, top concentration 25 μM; read-out: DE-19bDNA EC50

| SMILES | pEC50 |
| --- | --- |
| CN(C(=O)Nc1ccc(F)c(Cl)c1)C1CNCc2[nH]c(=O)c3cc(F)ccc3c21 (single isomer, unassigned) [Compound 154, 3-(3-Chloro-4-fluorophenyl)-1-(8-fluoro-6-oxo-1,2,3,4,5,6-hexahydrobenzo[c][1,7]naphthyridin-1-yl)-1-methylurea] | 7.52 |
| CN(C(=O)Nc1ccc(F)c(C#N)c1)C1CNCc2[nH]c(=O)c3cc(F)ccc3c21 (single isomer, unassigned) [Compound 161, 3-(3-Cyano-4-fluorophenyl)-1-(8-fluoro-6-oxo-1,2,3,4,5,6-hexahydrobenzo[c][1,7]naphthyridin-1-yl)-1-methylurea] | 4.77 |
| CN(C(=O)Nc1ccc(F)c(C#N)c1)C1C[S+]([O-])Cc2[nH]c(=O)c3cc(F)ccc3c21 (single isomer, unassigned) [Compound 202, 3-(3-Cyano-4-fluorophenyl)-1-(8-fluoro-3-oxido-6-oxo-1,4,5,6-tetrahydro-2H-thiopyrano[3,4-c]isoquinolin-1-yl)-1-methylurea] | ≤ 4.60 |
| CN(C(=O)Nc1ccc(F)c(Cl)c1)C1COCc2nc(NCCN)c3cc(F)c(F)cc3c21 (single isomer, unassigned) [Compound 250] | 6.57 |
| CN(C(=O)N1Cc2ccc(Br)cc2C1)C1CNCc2[nH]c(=O)c3cc(F)c(F)cc3c21 (single isomer, unassigned) [Compound 229, 5-Bromo-N-(8,9-difluoro-6-oxo-1,2,3,4,5,6-hexahydrobenzo[c][1,7]naphthyridin-1-yl)-N-methylisoindoline-2-carboxamide] | 5.17 |
| CN1Cc2[nH]c(=O)c3cc(F)ccc3c2C(N(C)C(=O)Nc2ccc(F)c(Cl)c2)C1 (single isomer, unassigned) [Compound 156, 3-(3-Chloro-4-fluorophenyl)-1-(8-fluoro-3-methyl-6-oxo-1,2,3,4,5,6-hexahydrobenzo[c][1,7]naphthyridin-1-yl)-1-methylurea] | 6.38 |
| CN(C(=O)Nc1ccc(F)c(C#N)c1)C1CN(CCO)Cc2[nH]c(=O)c3cc(F)c(F)cc3c21 (single isomer, unassigned) [Compound 181, 3-(3-Cyano-4-fluorophenyl)-1-(8,9-difluoro-3-(2-hydroxyethyl)-6-oxo-1,2,3,4,5,6-hexahydrobenzo[c][1,7]naphthyridin-1-yl)-1-methylurea] | ≤ 4.60 |
| CN(C(=O)Nc1ccc(F)c(C(F)F)c1)C1COCc2nc(NCCO)c3cc(F)c(F)cc3c21 (single isomer, unassigned) [Compound 238, 1-(8,9-Difluoro-6-((2-hydroxyethyl)amino)-1,4-dihydro-2H-pyrano[3,4-c]isoquinolin-1-yl)-3-(3-(difluoromethyl)-4-fluorophenyl)-1-methylurea] | 7.70 |
| CN1Cc2[nH]c(=O)c3cc(F)ccc3c2C(N(C)C(=O)Nc2ccc(F)c(Cl)c2)C1 (single isomer, unassigned) [Compound 155, 3-(3-Chloro-4-fluorophenyl)-1-(8-fluoro-3-methyl-6-oxo-1,2,3,4,5,6-hexahydrobenzo[c][1,7]naphthyridin-1-yl)-1-methylurea] | 5.04 |
| CC(=O)N1Cc2[nH]c(=O)c3cc(F)c(F)cc3c2C(N(C)C(=O)Nc2ccc(F)c(Cl)c2)C1 (single isomer, unassigned) [Compound 159, 1-(3-Acetyl-8,9-difluoro-6-oxo-1,2,3,4,5,6-hexahydrobenzo[c][1,7]naphthyridin-1-yl)-3-(3-chloro-4-fluorophenyl)-1-methylurea] | 4.92 |
| CN1Cc2[nH]c(=O)c3cc(F)c(F)cc3c2C(N(C)C(=O)Nc2ccc(F)c(Cl)c2)C1 (single isomer, unassigned) [Compound 168, 3-(3-Chloro-4-fluorophenyl)-1-(8,9-difluoro-3-methyl-6-oxo-1,2,3,4,5,6-hexahydrobenzo[c][1,7]naphthyridin-1-yl)-1-methylurea] | 6.74 |
| CN(C(=O)Nc1ccc(F)c(Cl)c1)C1C[S+]([O-])Cc2[nH]c(=O)c3cc(F)c(F)cc3c21 (single isomer, unassigned) [Compound 208, 3-(3-Chioro-4-fluorophenyl)-1-(8,9-difluoro-3-oxido-6-oxo-1,4,5,6-tetrahydro-2H-thiopyrano[3,4-c]isoquinolin-1-yl)-1-methylurea] | 5.07 |
| CN(C(=O)Nc1ccc(F)c(F)c1)C1COCc2[nH]c(=O)c3c(c21)CCOC3 (single isomer, unassigned) [Compound 94, 3-(3,4-Difluorophenyl)-1-methyl-1-(6-oxo-1,2,4,5,6,7,9,10-octahydrodipyrano[3,4-b:4′,3′-d]pyridin-1-yl)urea] | 6.13 |
| CN(C(=O)Nc1cc(F)c(F)c(F)c1)C1COCc2[nH]c(=O)c3cc(F)c(F)cc3c21 (single isomer, unassigned) [Compound 133, 1-(8,9-Difluoro-6-oxo-1,4,5,6-tetrahydro-2H-pyrano[3,4-c]isoquinolin-1-yl)-1-methyl-3-(3,4,5-trifluorophenyl)urea] | 7.70 |
